Reference: patent US20240350647A1, “STING SENSITIZING AGENTS” (STipe Therapeutics ApS, priority 2023, published 2024)
Where a SMILES comes first, the peptide text is derived from it. Bridges are numbered along the chain shown (N, C = ends). Where no end group is shown, it is not given here. [ ]: non-standard residue; d: D form. The star is where a group is joined. C16 diacid = O=C(O)CCCCCCCCCCCCCCC(=O)*; AEEA = NCCOCCOCC(=O)O

What was measured:
IFN-β = assay: Stimulation and sensitization assay in THP1 cells, IFN-β release (ELISA); type: cell-based, human; details: with 2 μM Agent 1
Description: THP1 cells were purchased from ATCC (TIB-202™) and cultured in RPMI 1640 supplemented with 10% FBS and 1% Penicillin/Streptomycin (P/S) at 37° C. and 5% CO2. Passaging of THP1 cells was kept below 20 passages.
ADU-S100 was dissolved according to manufacturer's protocol (tlrl-nacda2r) to 0.5 mg/mL in LAL and subsequently diluted in R10. diABZI Compound 3 was diluted from a 1 mM stock in 100% DMSO into R10. Agent 1 was dissolved to a stock solution of 1250 μM in 50% DMSO, 25 mM HEPES. Concentration of dissolved Agent 1 was determined by A280 measurement using Synergy HI (Biotek Gen5 SW). Subsequently, Agent 1 dilutions were prepared in RPMI 1640, 10% FBS, 1% P/S (R10).
Concentrations of CXCL10 and IFN-β in the collected supernatants were determined by Duo-Set ELISA from R&D. Absorbance measurements at 450/570 nm and quantification were done using Synergy HI plate reader (Biotek Gen5 SW), Microsoft Excel and GraphPad prism v. 9.3.1.
Data analysis and statistical analysis were done using GraphPad prism 9.3.1. […]
Dip: is the plateau in the middle of the curve, corresponding to EMax, same unite as y-axis. The EMax determined here are not derived from this regression, due to the limitations using bell shaped dose response. Instead, EMax-values were determined as the maximum response at any given STING agonist concentration for both IFN-β and CXCL10 from all experiments. […]

FIG. 9 = assay: FIG. 9
Description: Table printed on a drawing sheet, FIG. 9
The patent's description of the figure: FIG. 9. In vitro metabolic stability in blood.
First reader's note: Each column is one agent and each row gives its half-life in blood of one species at 37 °C; the test concentration is printed in the row label, or in the cells for human.

CD4+ T cells = assay: Dendritic Cell-T cell (DC-T) proliferation assay (ProImmune); details: 22 donors; Percentage Stimulation above Background ≥0.5%, SEM=2; peptides 0.34 μM
Text: A panel of peripheral blood mononuclear cell (PBMC) samples from healthy human donors was selected from the ProImmune Ltd (UK) cell bank. Each PBMC sample was HLA (Human Leukocyte Antigen)-typed and stored in liquid nitrogen (vapor-phase) prior to use. The panel was selected so that HLA class II alleles known to be highly expressed in the global population were well represented (data not shown). Donors were predominantly selected by DRB1 allele expression.
A Dendritic Cell-T cell (DC-T) proliferation assay (ProImmune Ltd) was used to identify the presence or potential T cell epitopes within the peptides. Adherent donor PBMCs were cultured with appropriate growth factors to generate monocyte-derived DCs. DCs were then loaded with a control (control 1 and control 2), the peptide (Agent 1, Agent 2, and Agent 3, see FIG. 8A) or left untreated. The peptides were loaded at a final concentration of 0.34 μM.
Mature antigen-loaded DCs were then co-cultured at a fixed ratio with autologous CFSE-labelled T cells in multi-well plates. Each test condition was set up in eight replicate wells and cells were incubated for 7 days. At the end of the incubation period, cell samples were stained with anti-CD4 antibody, then washed and fixed for by flow cytometric analysis. Proliferation was determined by measuring a decrease in CFSE intensity.
Data were compiled to determine antigen-induced proliferation per individual donor, calculated as Percentage Stimulation above Background. The frequency of positive donor cell responses (Percentage Antigenicity) was calculated as the proportion of responding donors out of total donors. Values were then standardized against the strength of response (an average of the Percentage Stimulation value obtained across accepted donors for each protein) to give a response index (RI).
Data obtained by flow cytometric evaluation of cell samples was analyzed using FlowJo Software (Tree Star, Inc.). The number of CFSE-dim (i.e., proliferating) cells was determined for each sample in eight replicate wells. Counts for the CD4^+ CFSE dim population in each sample were expressed as a proportion of the total CD4^+ population. The eight replicate values were then used to calculate Percentage Stimulation above Background (proportion of CD4^+ CFSE dim cells with antigen stimulation minus the proportion of CD4^+ CFSE dim cells without antigen stimulation).
Background threshold values are based on data from unstimulated cells for which a maximum acceptable resting proliferation threshold is established.
In evaluating antigenicity, it is also appropriate to take account of the frequency of donor cell responses across the study cohort. A positive response (Percentage Stimulation above Background ≥0.5%) in 2 or more independent donor samples is considered indicative of a potential T cell epitope.
Depending on the size of the study, (20, 40 or 50 donors), two responding donors sets a threshold of 10%, 5% or 4% respectively. Thus, following calculation of Percentage Stimulation above Background, the frequency of positive donor cell responses (Percentage Antigenicity) is expressed as the proportion of responding donors out of total accepted donors screened.
When calculating the antigenicity of a protein it is important to consider the strength of a response as well as the frequency of that response. This is because some binding responses may be pan-allele, but these responses may not be very strong. The strength of positive donor cell responses was determined by taking an average of the percentage stimulation value obtained across accepted donors for each protein. Determining a Response Index (RI) through the multiplication of strength and frequency values is more representative of the level of antigenicity.

FIG. 10A = assay: FIG. 10A
Description: Table printed on a drawing sheet, FIG. 10A
(§1) The patent's description of the figure: FIGS. 10A-10C. Pharmacokinetic profile and parameter for peptides after intravenous administration. FIG. 10A) Mouse PK data (10 mg/kg, bolus IV, n=3 per timepoint). FIG. 10B) Rat PK data (10 mg/kg, bolus IV, n=3 per timepoint). FIG. 10C) Non-human primate (NHP) PK data (4 mg/kg, 30 min IV infusion, n=3). Error bars represent the standard deviation (SD).
First reader's note: Mouse PK parameters; the legend of the plot on the same sheet gives 10 mg/kg (IV) for both agents.

FIG. 10B = assay: FIG. 10B
Description: Table printed on a drawing sheet, FIG. 10B
as §1
First reader's note: Rat PK parameters; the plot legend on the same sheet gives 10 mg/kg (IV) for both agents, and the top-left cell 'PK parameters / rat' spans the first two rows.

FIG. 10C = assay: FIG. 10C
Description: Table printed on a drawing sheet, FIG. 10C
as §1
First reader's note: The species NHP stands in the head column of row 2, and the plot legend on the same sheet gives the dosing as 4 mg/kg (30-min IV) for both agents.

## Nc1nc2c(ncn2[C@@H]2O[C@@H]3COP(=O)(O)O[C@H]4[C@@H](O)[C@H](n5cnc6c(N)ncnc65)O[C@@H]4COP(=O)(O)O[C@@H]2[C@@H]3O)c(=O)[nH]1 [2′3′-cGAMP, cyclic 2′3′ GMP-AMP]
IFN-β
  EC50 of cGAMP for IFN expression: around 20 μg/mL

## CC[C@H](C)[C@H](NC(=O)[C@H](CC(N)=O)NC(=O)[C@H](CCCCN)NC(=O)[C@H](C)NC(=O)[C@H](CCCCN)NC(=O)[C@H](CCCCN)NC(=O)COCCOCCNC(=O)COCCOCCNC(=O)CCCCCCCCCCCCCCC(=O)O)C(=O)N[C@H](C(=O)N[C@@H](CC(C)C)C(=O)N[C@@H](CC(C)C)C(=O)N[C@@H](CCCCN)C(=O)NCC(=O)N[C@@H](CC(C)C)C(=O)N[C@@H](CCC(=O)O)C(=O)N[C@H](C(=O)N[C@H](C(=O)N[C@@H](CC(N)=O)C(=O)N[C@@H](CC(=O)O)C(=O)N[C@@H](Cc1c[nH]c2ccccc12)C(=O)N[C@@H](Cc1c[nH]cn1)C(=O)N[C@@H](Cc1ccccc1)C(=O)N[C@H]1CSSC[C@@H](C(N)=O)NC(=O)[C@@H](CCCNC(=N)N)NC(=O)[C@H](CCCNC(=N)N)NC(=O)[C@@H](CCCCN)NC(=O)[C@H](CCCCN)NC(=O)[C@@H](CCCNC(=N)N)NC(=O)CNC(=O)[C@@H](CCCNC(=N)N)NC(=O)[C@H](CCCNC(=N)N)NC(=O)[C@@H](CCCNC(=N)N)NC1=O)[C@@H](C)CC)C(C)C)C(C)C [Agent 1 T½ (min)] ({C16 diacid-AEEA-AEEA}-KKAKNIVLLKGLEVINDWHFC[dR]R[dR]G[dR]K[dK]R[dR]C-NH2; disulfide 21-31)
FIG. 9
  Mouse (@ 5.0 µg/mL): 174 min
  NHP (@ 4.4 µg/mL): 172 min
  Rat (@ 5.0 µg/mL): 86 min

## CC[C@H](C)[C@H](NC(=O)[C@H](CC(N)=O)NC(=O)[C@H](CCCCN)NC(=O)[C@H](C)NC(=O)[C@H](CCCCN)NC(=O)[C@@H](N)CCCCN)C(=O)N[C@H](C(=O)N[C@@H](CC(C)C)C(=O)N[C@@H](CC(C)C)C(=O)N[C@@H](CCCCN)C(=O)NCC(=O)N[C@@H](CC(C)C)C(=O)N[C@@H](CCC(=O)O)C(=O)N[C@H](C(=O)N[C@H](C(=O)N[C@@H](CC(N)=O)C(=O)N[C@@H](CC(=O)O)C(=O)N[C@@H](Cc1c[nH]c2ccccc12)C(=O)N[C@@H](Cc1c[nH]cn1)C(=O)N[C@@H](Cc1ccccc1)C(=O)N[C@H]1CSSC[C@@H](C(N)=O)NC(=O)[C@@H](CCCNC(=N)N)NC(=O)[C@H](CCCNC(=N)N)NC(=O)[C@@H](CCCCN)NC(=O)[C@H](CCCCN)NC(=O)[C@@H](CCCNC(=N)N)NC(=O)CNC(=O)[C@@H](CCCNC(=N)N)NC(=O)[C@H](CCCNC(=N)N)NC(=O)[C@@H](CCCNC(=N)N)NC1=O)[C@@H](C)CC)C(C)C)C(C)C [Agent 3] (H-KKAKNIVLLKGLEVINDWHFC[dR]R[dR]G[dR]K[dK]R[dR]C-NH2; disulfide 21-31; N-terminus assumed)
CD4+ T cells
  Response Index (RI): 0.306
  percentage antigenicity: 22.73%

## KKYKNIVLLKGLEVINDYHFGRKKRRQRRRPQ-NH2 [Agent 2 T½ (min)]
FIG. 9
  Mouse (@ 5.0 µg/mL): 4 min
  Rat (@ 5.0 µg/mL): 3 min

## KKYKNIVLLKGLEVINDYHFGRKKRRQRRRPQ-NH2 [Agent 2, reference compound]
CD4+ T cells
  Response Index (RI): 0.445
  percentage antigenicity: 31.82%

## KKYKNIVLLKGLEVINDYHFGRKKRRQRRRPQ-NH2 [Agent 2]
FIG. 10A
  AUC0-inf: 373 ng·h/mL
  Clobs: 447 mL/min/kg
FIG. 10A; mouse, in vivo, iv, 10 mg/kg
  C0: 3910 ng/mL
FIG. 10B
  AUC0-inf: 225 ng·h/mL
  Clobs: 742 mL/min/kg
FIG. 10B; rat, in vivo, iv, 10 mg/kg
  C0: 1730 ng/mL
FIG. 10C
  AUC0-inf (ng·h/mL): 1,250 ng·h/mL
  C0 (ng/mL): 2,760 ng/mL
  Clobs: 53.8 mL/min/kg
